Key:
[1] = system: Plasmodium falciparum; assay: Antiprotozoal activity against chloroquine and pyrimethamine-resistant Plasmodium falciparum K1; assay type: functional, organism-based
[2] = Selectivity index, ratio of IC50 for rat L6 cells to IC50 for chloroquine and pyrimethamine-resistant Plasmodium falciparum K1; assay type: toxicity, cell-based; conditions: read-out: Ratio IC50
[3] = system: Trypanosoma cruzi; assay: Antiprotozoal activity against Trypanosoma cruzi Tulahuen C2C4; assay type: functional, organism-based
[4] = Selectivity index, ratio of IC50 for rat L6 cells to IC50 for Trypanosoma cruzi Tulahuen C2C4; assay type: toxicity, cell-based; conditions: read-out: Ratio IC50
[5] = system: Trypanosoma brucei rhodesiense; assay: Antiprotozoal activity against Trypanosoma brucei rhodesiense STIB900; assay type: functional, organism-based
[6] = Selectivity index, ratio of IC50 for rat L6 cells to IC50 for Trypanosoma brucei rhodesiense STIB900; assay type: toxicity, cell-based; conditions: read-out: Ratio IC50
[7] = system: Leishmania donovani; assay: Antiprotozoal activity against Leishmania donovani MHOMET-67/L82; assay type: functional, organism-based
[8] = Selectivity index, ratio of IC50 for rat L6 cells to IC50 for Leishmania donovani MHOMET-67/L82; assay type: toxicity, cell-based; conditions: read-out: Ratio IC50
[9] = system: L6; assay: Cytotoxicity against rat L6 cells; assay type: cell-based

| SMILES | IC50 [1] | selectivity ratio [2] | IC50 [3] | selectivity ratio [4] | IC50 [5] | selectivity ratio [6] | IC50 [7] | selectivity ratio [8] | IC50 [9] |
| --- | --- | --- | --- | --- | --- | --- | --- | --- | --- |
| CN1/C(=C/C=C/c2oc3ccccc3[n+]2C)Oc2ccccc21 | 38 nM | 98.5 | 106 nM | 35.6 | 707 nM | 5.3 | 211 nM | 17.8 | 3760 nM |
| Cc1ccc2c(c1)N(C)/C(=C/C=C/c1oc3ccccc3[n+]1C)O2 | 90 nM | 12.6 | 19 nM | 57.7 | 48 nM | 23.8 | 22 nM | 50.5 | 1140 nM |
| Cc1ccc2c(c1)N(C)/C(=C/C=C/c1oc3ccc(C)cc3[n+]1C)O2 | 14 nM | 17 |  |  | 54 nM | 4.3 | 5 nM | 42.5 | 230 nM |
| CN1/C(=C/C=C/c2oc3ccccc3[n+]2C)Oc2ccc(Cl)cc21 | 925 nM | 25.8 | 7750 nM | 3.1 | 5840 nM | 4.1 | 1460 nM | 16.3 | 23900 nM |
| Cc1ccc2oc(/C=C/C=C3\Oc4ccc(Cl)cc4N3C)[n+](C)c2c1 | 468 nM | 16.2 | 1370 nM | 5.5 | 136 nM | 55.7 | 110 nM | 68.6 | 7580 nM |
| CN1/C(=C/C=C/c2oc3ccc(Cl)cc3[n+]2C)Oc2ccc(Cl)cc21 | 6030 nM | 6 | 47800 nM | 0.8 | 5200 nM | 6.9 | 5320 nM | 6.7 | 35900 nM |
| CN1/C(=C/C=C/c2oc3ccccc3[n+]2C)Sc2ccccc21 | 2 nM | 303 | 11 nM | 75.8 | 185 nM | 4.6 | 90 nM | 9.5 | 849 nM |
| Cc1ccc2c(c1)N(C)/C(=C/C=C/c1oc3ccccc3[n+]1C)S2 | 11 nM | 13.5 |  |  | 113 nM | 1.3 | 14 nM | 10.8 | 146 nM |
| Cc1ccc2oc(/C=C/C=C3\Sc4ccccc4N3C)[n+](C)c2c1 | 16 nM | 7.5 |  |  | 496 nM | 0.2 | 40 nM | 3 | 121 nM |
| Cc1ccc2c(c1)N(C)/C(=C/C=C/c1oc3ccc(C)cc3[n+]1C)S2 | 8 nM | 12 |  |  | 39 nM | 2.4 | 10 nM | 9 | 94 nM |
| CN1/C(=C/C=C/c2oc3ccc(Cl)cc3[n+]2C)Sc2ccccc21 | 20 nM | 166 | 284 nM | 12 | 13 nM | 266 | 61 nM | 55.4 | 3400 nM |
| Cc1ccc2oc(/C=C/C=C3\Sc4ccc(Cl)cc4N3C)[n+](C)c2c1 | 20 nM | 60 | 109 nM | 10.9 | 62 nM | 19.2 | 89 nM | 13.3 | 1180 nM |
| CN1/C(=C/C=C/c2oc3ccccc3[n+]2C)Sc2ccc(Cl)cc21 | 13 nM | 178 | 355 nM | 6.4 | 266 nM | 8.6 | 120 nM | 19 | 2280 nM |
| CN1/C(=C/C=C/c2oc3ccc(Cl)cc3[n+]2C)Sc2ccc(Cl)cc21 | 21 nM | 141 | 2860 nM | 1 | 129 nM | 23.1 | 85 nM | 35.3 | 2980 nM |
| CCN1/C(=C/C=C/c2oc3ccc(C)cc3[n+]2C)Sc2ccc(F)cc21 | 10 nM | 66 | 27 nM | 24 | 285 nM | 2.3 | 15 nM | 44 | 655 nM |
| Cc1ccc2oc(/C=C/C=C3\Sc4ccc(F)cc4N3C)[n+](C)c2c1 | 10 nM | 145 | 8 nM | 194 | 180 nM | 8.3 | 21 nM | 72.6 | 1490 nM |

| SMILES | IC50 [1] | selectivity ratio [2] | IC50 [3] | selectivity ratio [4] | IC50 [5] | selectivity ratio [6] | IC50 [7] | selectivity ratio [8] | IC50 [9] |
| --- | --- | --- | --- | --- | --- | --- | --- | --- | --- |
| CCN1/C(=C/C=C/c2oc3ccc(Cl)cc3[n+]2C)Sc2ccc(F)cc21 | 14 nM | 218 | 853 nM | 3.6 | 850 nM | 3.6 | 106 nM | 29.1 | 3100 nM |
| CN1/C(=C/C=C/c2oc3ccccc3[n+]2C)Sc2ccc(F)cc21 | 5 nM | 201 | 186 nM | 5.7 | 867 nM | 1.2 | 67 nM | 16.1 | 1070 nM |
| CCN1/C(=C/C=C/c2oc3ccccc3[n+]2C)Sc2ccc(F)cc21 | 3 nM | 586 | 262 nM | 5.7 | 841 nM | 1.8 | 54 nM | 27.9 | 1510 nM |
| CN1/C(=C/C=C/c2sc3ccccc3[n+]2C)Sc2ccccc21 | 3 nM | 126 | 5 nM | 63 | 115 nM | 2.9 | 5 nM | 63 | 338 nM |
| CN1/C(=C/C=C/c2sc3ccccc3[n+]2C)Sc2ccc(Cl)cc21 | 7 nM | 45 | 7 nM | 45 | 64 nM | 5.2 | 64 nM | 5.2 | 331 nM |
| CN1/C(=C/C=C/c2sc3ccc(Cl)cc3[n+]2C)Sc2ccc(Cl)cc21 | 2 nM | 477 | 7080 nM | 0.2 | 18 nM | 59.6 | 9 nM | 119 | 1080 nM |
| CN1/C(=C/C=C/c2sc3ccccc3[n+]2C)Sc2ccc(F)cc21 | 5 nM | 94.5 |  |  | 394 nM | 1.2 | 79 nM | 6.1 | 483 nM |
| CCN1/C(=C/C=C/c2sc3ccccc3[n+]2C)Sc2ccc(F)cc21 | 7 nM | 32.3 |  |  | 452 nM | 0.5 | 111 nM | 2.2 | 240 nM |
| CN1/C(=C/C=C/c2sc3ccc(F)cc3[n+]2C)Sc2ccc(F)cc21 | 2 nM | 477 | 2910 nM | 0.2 | 262 nM | 2.7 | 20 nM | 35.8 | 699 nM |
| CCN1/C(=C/C=C/c2sc3ccc(F)cc3[n+]2CC)Sc2ccc(F)cc21 | 2 nM | 371 | 1170 nM | 0.7 | 769 nM | 1.1 | 28 nM | 30.9 | 849 nM |
| Cn1/c(=N/C=C/c2sc3ccccc3[n+]2C)sc2ccccc21 | 8 nM | 340 | 16 nM | 170 | 21 nM | 128 | 11 nM | 255 | 2730 nM |
| Cn1/c(=N/C=C/c2sc3ccc(Cl)cc3[n+]2C)sc2ccccc21 | 5 nM | 132 | 509 nM | 1.3 | 10 nM | 66.3 | 7 nM | 88.3 | 649 nM |
| Cn1/c(=N/C=C/c2sc3ccc(F)cc3[n+]2C)sc2ccccc21 | 38 nM | 153 | 648 nM | 9 | 370 nM | 15.8 | 31 nM | 191 | 5840 nM |
| Cn1/c(=N\N/C=C/c2sc3ccccc3[n+]2C)sc2ccccc21 | 7020 nM | 3 | 12400 nM | 1.7 | 3830 nM | 5.5 | 13100 nM | 1.6 | 21100 nM |
| Cn1/c(=N\N/C=C/c2sc3ccc(Cl)cc3[n+]2C)sc2ccccc21 | 2600 nM | 4.2 | 11400 nM | 1 | 2970 nM | 3.6 | 8340 nM | 1.3 | 10800 nM |
| Cn1/c(=N\N/C=C/c2sc3ccc(F)cc3[n+]2C)sc2ccccc21 | 6140 nM | 2.5 | 11800 nM | 1.3 | 4450 nM | 3.5 | 10200 nM | 1.5 | 15500 nM |

Reference: ChEMBL document CHEMBL3217673, “Synthesis of cyanine dyes and investigation of their in vitro antiprotozoal activities” (Medchemcomm, 2012)
